Test results from patent publication EP3723745B1, “PHENOXY ACIDS FOR THE TREATMENT OF NEUROMUSCULAR DISORDERS” (NMD Pharma A/S, priority 2017, dated 2019).

Legend:
CIC-1 channels = molecular target: T1, CIC-1 channels (Rattus norvegicus, UniProt P35524); assay: Electrophysiological measurement of compound inhibition of CIC-1 in rat muscle (Gm, three micro-electrodes technique); format: cell-based; conditions: reduction of Gm in fibres of whole rat soleus muscles, approx. 30°C; n = number of experiments
T1 construct: from tissue; host or cells: intact soleus muscle of 12-14-week old Wistar rats
T1 sequence (P35524 1-994): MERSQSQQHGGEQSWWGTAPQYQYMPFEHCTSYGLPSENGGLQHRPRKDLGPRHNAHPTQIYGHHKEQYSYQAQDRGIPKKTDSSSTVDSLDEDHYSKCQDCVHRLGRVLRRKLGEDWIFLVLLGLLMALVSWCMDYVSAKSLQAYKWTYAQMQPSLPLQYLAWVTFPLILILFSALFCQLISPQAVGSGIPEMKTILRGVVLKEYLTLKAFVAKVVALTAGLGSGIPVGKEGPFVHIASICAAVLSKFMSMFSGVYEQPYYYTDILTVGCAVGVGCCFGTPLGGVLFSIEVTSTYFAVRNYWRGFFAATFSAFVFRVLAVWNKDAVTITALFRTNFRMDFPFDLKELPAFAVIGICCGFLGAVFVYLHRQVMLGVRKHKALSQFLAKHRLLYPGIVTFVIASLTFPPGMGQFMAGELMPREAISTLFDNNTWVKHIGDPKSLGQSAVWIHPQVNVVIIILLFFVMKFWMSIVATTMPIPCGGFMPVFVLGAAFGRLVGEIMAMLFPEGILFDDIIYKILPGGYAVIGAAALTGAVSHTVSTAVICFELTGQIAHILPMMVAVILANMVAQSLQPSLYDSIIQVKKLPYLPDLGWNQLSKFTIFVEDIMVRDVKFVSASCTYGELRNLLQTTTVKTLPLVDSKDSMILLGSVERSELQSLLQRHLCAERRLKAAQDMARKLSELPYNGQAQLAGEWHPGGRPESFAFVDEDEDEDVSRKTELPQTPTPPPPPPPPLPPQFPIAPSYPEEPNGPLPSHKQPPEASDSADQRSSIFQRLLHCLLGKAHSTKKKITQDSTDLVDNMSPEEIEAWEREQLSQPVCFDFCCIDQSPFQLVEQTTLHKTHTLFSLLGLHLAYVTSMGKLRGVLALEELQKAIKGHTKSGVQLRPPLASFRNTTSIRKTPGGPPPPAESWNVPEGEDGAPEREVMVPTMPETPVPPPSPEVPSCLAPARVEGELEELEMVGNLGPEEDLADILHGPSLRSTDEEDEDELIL
Source text: Table 2: Inhibition of CIC-1 ion channel using compounds of the invention

soleus muscles = assay: Measurement of force in an in vitro model: isolated rat nerve-muscle preparation with tubocurarine; conditions: Rattus norvegicus, 40 min; percentage of initial force restored after 40 mins with 50 µM test compound; tubocurarine (115 nM) for 90 mins; read-out: Point increase
Procedure: Recovery of force is quantified as the percentage of the force prior to tubocurarine that is recovered by the compound.
The current invention relates to compounds that inhibit CIC-1 ion channels and increase muscle excitability and thereby improve muscle function in clinical conditions where muscle activation is failing. Such conditions result in loss of contractile function of skeletal muscle, weakness and excessive fatigue. In this series of experiments the compounds were tested for their ability to restore contractile function of isolated rat muscle when the neuromuscular transmission had been compromised akin to neuromuscular disorders.
Experimentally, soleus muscles from 4-5 wk old rats were isolated with the motor nerve remaining attached. The nerve-muscle preparations were mounted in experimental setups that enabled electrical stimulation of the motor nerve. Stimulation of the motor nerve led to activation of the muscle fibres and ensuing force production that was recorded.
After mounting the nerve-muscle preparation in the experimental setup, the contractile function of the muscle was initially assessed under the control conditions (Figure 2A). […] The experimental condition mimics the failing neuromuscular transmission in a range of neuromuscular disorders. After addition of tubocurarine the contractile force declined over the next 90 mins to 10-50 % of the control force. 50 µM of the test compound was then added and the contractile force recovered despite the continued presence of tubocurarine. To quantify the ability of the compound to restore force the percentage of the initial force that was restored was determined after 40 mins of compound exposure (Figure 2B) and the point increase is reported in Table 3. Table 3: Percentage increase of initial force that was restored using compounds of the invention

female Lewis rats = assay: Measurement of in situ muscle contractile characteristics (isometric hindlimb force, cisatracurium block); format: in vivo, rat; conditions: for average increase in twitch peaks: 12 Hz; for average increase in twitch peaks / average increase in tetanic force: cisatracurium infusion; for average increase in tetanic force: 80 Hz; for restore force to muscles in vivo: muscles partially inhibited by a neuromuscular blocker, summary in words
Procedure: Isometric hindlimb force was measured in 12-week old female Lewis rats in the presence and absence of compound.
Rats were placed under anesthesia with isoflurane (2-4%), intubated and subsequently connected to a micro ventilator (Microvent 1, Hallowell EMC, US). Two stimulation electrodes were inserted through the skin to stimulate the sciatic nerve. A small incision was made proximal to the ankle, to expose the Achilles tendon, which was tied by cotton string, and connected to a force transducer (Fort250, World Precision Instruments) with adjustable position (Vernier control). The Achilles tendon was then cut distal to the attached cotton string. The rat was placed on a heated pad, and to prevent movement artefacts from contraction of the ankle dorsiflexors, the foot was fixated by tape on a footplate.
Muscle contractile properties were assessed by applying an electrical current (under supramaximal voltage conditions) to the nerve and recording the force generated by the muscle. The muscle was stretched until maximal force was obtained, when assessed by 2 Hz stimulation. Isometric force was measured every 30 seconds at 12 Hz (Twitch), 10 pulses, and at every 5 minutes at 80 Hz (Tetanic) for 1 second (80 pulses). This stimulation pattern was employed throughout the experiment, expect in few cases where 80 Hz stimulation was replaced by 12 Hz (10 pulses). […] When the level of neuromuscular inhibition was stable, the test article was injected i.v. at the chosen concentration. The effect of test article was assessed on its ability to increase force generated from the stimulation pattern applied. The effect was assessed in the ability to increase force per se (tetanic, 80 Hz, stimulation), and the ratio between individual twitch peaks (12 Hz stimulation). The effect was monitored for at least 1 hour after injection of test article. In addition, the time from injection of test article to maximal effect on force (both twitch and tetanic) was noted and the time for the effect to disappear (return to baseline), if possible. When appropriate the infusion of neuromuscular blocking agent was ceased, with the stimulation pattern continued, and the return of force to control levels was monitored. Animals were sacrificed by cervical dislocation while still fully sedated.

human CIC-1 channels = molecular target: T2, human CIC-1 channels (Homo sapiens, UniProt P35523); assay: Automated patch-clamp on human CIC-1 expressed in CHO cells; format: cell-based; conditions: difference in half activation voltage, compound added intracellularly vs control cell patches; positive shift = CIC-1 inhibition
T2 construct: host or cells: CHO cells constitutively expressing human ClC-1
Procedure: The investigatory goal of these experiments was to evaluate how compounds affect the open probability and current amplitude of human CIC-1 channels expressed in CHO cells. Experiments were performed using an automated patch clamp system that allowed high throughput testing of whole cell patches together with both intracellular and extracellular addition of compound.
Automated whole cell patch clamp experiments were performed with the Qpatch 16 system (Sophion Bioscience, Ballerup, Denmark) at room temperature. Data acquisition and analysis were performed in the Qassay software (ver. 5.6, Odense).
To evoke CIC-1 currents in whole cell patches, the membrane potential was initially stepped from a holding potential of -30 mV to +60 mV for 100 ms and then to various test voltages (sweeps) ranging from +120 mV to -140 mV in steps of 20 mV for 300 ms. To obtain tail currents, the membrane potential was stepped to -100 mV after each test voltage for 300 ms and then relaxed to -30 mV for 2 sec between sweeps (Figure 3). I/V relationships for whole cell instant and steady state current amplitudes were obtained by plotting average current densities at the beginning and at the end of the 300 ms step against the membrane potential (Figure 4).
In order to determine the relative overall open probability (P0), the instantaneous tail currents were normalized to the maximal tail current obtained following the most positive voltage step and plotted against the test voltage. Plots of normalized tail currents from each whole cell patch were then fitted to a Boltzmann function allowing determination of half activation voltages (V1/2, Figure 5).
For automated patch clamp experiments extracellular solutions contained: 2 mM CaCl2, 1 mM MgCl2, 10 mM HEPES, 4 mM KCI, 145 mM NaCl, 10 mM Glucose, pH adjusted to 7.4 with NaOH (2 M). Osmolality adjusted to -320 using sucrose.
Intracellular solutions contained: 80 mM CsF, 60 mM CsCI, 5/1 mM KOH/EGTA, 10 mM HEPES, 10 mM NaCl, pH adjusted to 7.2 with NaOH (2 M). Osmolality adjusted to -320 mOsm using sucrose.
Cells used in patch clamp experiments were Chinese hamster ovary cells (CHO) constitutively expressing human CIC-1 channels. The amino acid sequence encoded by the cDNA used to create this cell line was identical to the translated sequence for GenBank accession number NM_000083.2. Cells were produced by Charles River (Catalogue CT6175, Cleveland OH, USA) in a cryopreserved format. Experiments were performed on the cells directly after thawing (3 × 10^6 cells used in each experiment).
To evaluate the compound effect on CIC-1, when applied directly to the intracellular side of the cell membrane, the half activation voltage, V1/2, was determined from whole cell patches with compound added to the intracellular solution and then compared to V1/2 determined from control cell patches with only vehicle added to the intracellular solution. Additionally, the effect of extracellular added compound was evaluated by determine V1/2 and steady state current amplitudes before and after exchanging the extracellular solution to contain compound.
The difference in half activation voltage of CIC-1 channels, ΔV1/2, was determined as the difference between the cell patches treated intracellularly with compound and control cells patches and is reported in Table 4 below. A positive shift in ΔV1/2 is reflecting CIC-1 channel inhibition by the tested compound. P-values of <0.05 is considered significant. […]

T2 sequence (P35523 whole entry): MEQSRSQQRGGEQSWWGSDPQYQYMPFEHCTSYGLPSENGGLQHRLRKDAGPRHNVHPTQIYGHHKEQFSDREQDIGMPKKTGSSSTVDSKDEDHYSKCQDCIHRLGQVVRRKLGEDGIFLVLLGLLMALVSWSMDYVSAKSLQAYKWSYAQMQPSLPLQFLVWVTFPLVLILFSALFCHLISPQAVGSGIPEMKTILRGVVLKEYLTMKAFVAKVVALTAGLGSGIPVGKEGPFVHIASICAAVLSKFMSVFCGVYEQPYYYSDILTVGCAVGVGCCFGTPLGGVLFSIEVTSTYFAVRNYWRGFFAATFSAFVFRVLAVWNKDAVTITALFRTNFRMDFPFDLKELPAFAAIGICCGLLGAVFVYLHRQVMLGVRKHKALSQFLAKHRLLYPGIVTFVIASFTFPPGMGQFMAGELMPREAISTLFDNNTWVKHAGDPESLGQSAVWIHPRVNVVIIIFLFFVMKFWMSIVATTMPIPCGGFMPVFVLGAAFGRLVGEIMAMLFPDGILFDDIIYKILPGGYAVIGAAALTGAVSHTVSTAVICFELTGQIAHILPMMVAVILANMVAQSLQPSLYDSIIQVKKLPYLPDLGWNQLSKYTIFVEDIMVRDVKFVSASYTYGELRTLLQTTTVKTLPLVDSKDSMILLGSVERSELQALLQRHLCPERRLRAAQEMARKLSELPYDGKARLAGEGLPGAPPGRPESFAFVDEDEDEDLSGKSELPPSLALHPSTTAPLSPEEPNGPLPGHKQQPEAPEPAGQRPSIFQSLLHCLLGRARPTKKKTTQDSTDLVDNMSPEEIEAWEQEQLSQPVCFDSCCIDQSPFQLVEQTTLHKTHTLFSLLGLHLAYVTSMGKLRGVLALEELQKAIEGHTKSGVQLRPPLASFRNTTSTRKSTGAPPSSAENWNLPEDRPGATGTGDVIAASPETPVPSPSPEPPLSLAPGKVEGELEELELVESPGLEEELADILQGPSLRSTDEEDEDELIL

Row | SMILES | EC50 (CIC-1 channels) [µM] | activation at 50 µM (soleus muscles) [%] | average increase in twitch peaks (female Lewis rats; 20 mg/kg i.v.) [%] | average increase in tetanic force (female Lewis rats; 20 mg/kg i.v.) [%] | restore force to muscles in vivo (female Lewis rats) | ΔV1/2 (human CIC-1 channels) [mV] | average increase in twitch peaks (female Lewis rats; 21 mg/kg i.v.) [%] | average increase in tetanic force (female Lewis rats; 21 mg/kg i.v.) [%]
1 | C[C@H](Oc1ccc(Br)cc1F)C(=O)O [Compound A-31, (2S)-2-(4-bromo-2-fluorophenoxy)propanoi c acid] | 7.2 ± 2.8 | 42 | 7.3 | 29.8 | can restore force |  |  | 
2 | O=C(O)[C@@H](Oc1ccc(Br)cc1F)C1CC1 [Compound A-89, (2S)-2-(4-bromo-2-fluorophenoxy)-2-cyclopropylacetic acid] | 8.7 ± 1.4 | 33 |  |  |  | 10.3 |  | 
3 | C[C@@H](F)[C@H](Oc1ccc(Br)cc1)C(=O)O [Compound A-94, (2R,3R)-2-(4-bromophenoxy)-3-fluorobutanoic acid] | 12 ± 3.2 | 31 |  |  | can restore force |  | 11.5 | 34.8
4 | C[C@@H](F)[C@H](Oc1ccc(Br)cc1F)C(=O)O [Compound A-95, (2R,3R)-2-(4-bromo-2-fluorophenoxy)-3-fluorobutanoic acid] | 12.5 ± 1.4 | 39 |  |  |  | 10.3 |  | 
